Laboratory results taken from the supplement of paper PMC13380429.

Key:
Settings in all cases: 72 h
U2OS [1] = assay: drug sensitivity score (DSS) for viability; higher = more toxic; extreme values may be limits of the assay
Vero E6 [2] = assay: as above
Calu-3 [3] = assay: as above
Caco-2 [4] = assay: as above
HepG2 [5] = assay: as above
U2OS [6] = assay: relative viability EC50 (midpoint between 100% and the lowest measured viability); higher = less toxic
Calu-3 [7] = assay: as above
U2OS [8] = assay: cell viability relative to DMSO; higher = less toxic
Vero E6 [9] = assay: as above
Calu-3 [10] = assay: as above
Caco-2 [11] = assay: as above
HepG2 [12] = assay: as above
Vero E6 [13] = assay: relative viability EC50 (midpoint between 100% and the lowest measured viability); higher = less toxic
Caco-2 [14] = assay: as above

| SMILES | drug sensitivity score (U2OS [1]) | drug sensitivity score (Vero E6 [2]) | drug sensitivity score (Calu-3 [3]) | drug sensitivity score (Caco-2 [4]) | drug sensitivity score (HepG2 [5]) | relative viability EC50 (U2OS [6]) [µM] | relative viability EC50 (Calu-3 [7]) [µM] | cell viability (U2OS [8]; 1 nM) [%] | cell viability (U2OS [8]; 10 nM) [%] | cell viability (U2OS [8]; 100 nM) [%] | cell viability (U2OS [8]; 1000 nM) [%] | cell viability (U2OS [8]; 10000 nM) [%] | cell viability (Vero E6 [9]; 1 nM) [%] | cell viability (Vero E6 [9]; 10 nM) [%] | cell viability (Vero E6 [9]; 100 nM) [%] | cell viability (Vero E6 [9]; 1000 nM) [%] | cell viability (Vero E6 [9]; 10000 nM) [%] | cell viability (Calu-3 [10]; 1 nM) [%] | cell viability (Calu-3 [10]; 10 nM) [%] | cell viability (Calu-3 [10]; 100 nM) [%] | cell viability (Calu-3 [10]; 1000 nM) [%] | cell viability (Calu-3 [10]; 10000 nM) [%] | cell viability (Caco-2 [11]; 1 nM) [%] | cell viability (Caco-2 [11]; 10 nM) [%] | cell viability (Caco-2 [11]; 100 nM) [%] | cell viability (Caco-2 [11]; 1000 nM) [%] | cell viability (Caco-2 [11]; 10000 nM) [%] | cell viability (HepG2 [12]; 1 nM) [%] | cell viability (HepG2 [12]; 10 nM) [%] | cell viability (HepG2 [12]; 100 nM) [%] | cell viability (HepG2 [12]; 1000 nM) [%] | cell viability (HepG2 [12]; 10000 nM) [%] | relative viability EC50 (Vero E6 [13]) [µM] | relative viability EC50 (Caco-2 [14]) [µM] |
| --- | --- | --- | --- | --- | --- | --- | --- | --- | --- | --- | --- | --- | --- | --- | --- | --- | --- | --- | --- | --- | --- | --- | --- | --- | --- | --- | --- | --- | --- | --- | --- | --- | --- | --- |
| C[C@H]1[C@H](OC(=O)CCC(=O)O)O[C@@H]2O[C@@]3(C)CC[C@H]4[C@H](C)CC[C@@H]1[C@@]24OO3 [artesunate] | 6.4 | 1.6 | 0 | 1.3 | 2.8 | 1.42 | > 10 | 102 | 100 | 100 | 81 | 35.3 | 97.4 | 97.8 | 96.5 | 98.5 | 69.2 | 104 | 98.3 | 114 | 107 | 88 | 102 | 96.1 | 98.3 | 98.3 | 73 | 91.9 | 96.5 | 94.5 | 88.3 | 65.2 |  |  |
| Cc1cc2c(F)c(Oc3ncnn4cc(OC[C@@H](C)OC(=O)[C@H](C)N)c(C)c34)ccc2[nH]1 [brivanib-alaninate] | 1 | 0 | 0.1 | 0.1 |  |  | > 10 | 94.2 | 101 | 92.5 | 101 | 73.1 | 93.1 | 96 | 96.5 | 90.9 | 88.2 | 90.8 | 103 | 95.3 | 102 | 86.5 | 91.8 | 98.5 | 88.2 | 101 | 86.3 |  |  |  |  |  | > 10 | > 10 |
| O=C(/C=C/c1ccc(O)c(O)c1)c1ccc(O)cc1O [butein] | 1.4 | 0 | 0 | 3.2 | 3.2 | > 10 | > 10 | 93.8 | 101 | 94.9 | 96.9 | 75.9 | 103 | 101 | 102 | 99.6 | 101 | 100 | 103 | 97.2 | 112 | 92.7 | 95.5 | 103 | 101 | 92 | 61.9 | 99.3 | 103 | 104 | 93.4 | 58.4 | > 10 |  |
| C[N+](C)(C)CCOC(N)=O [carbachol] | 0 | 0 | 0 | 0 |  | > 10 | > 10 | 107 | 107 | 98.3 | 103 | 98.3 | 101 | 98.4 | 97.3 | 97.2 | 99 | 95 | 102 | 94 | 97.8 | 100 | 93.6 | 98.2 | 106 | 99.1 | 106 |  |  |  |  |  | > 10 | > 10 |
